# Target: HLA-E*0103 (Homo sapiens, UniProt P13747)
# Test: HLA-E peptide refolding into monomer complexes
# Type: biochemical
sequence,measurement,value
YLLPAIVHI,refolding of HLA-E*0103/peptide,successfully refold HLA-E*0103/peptide into stable monomer complexes

# Reference: patent publication US20200291127A1, “ANTIBODIES AND METHODS OF USE THEREOF” (AbeXXa Biologics, Inc., priority 2020, published 2020)
